The test system of this test is male obese Sprague Dawley rats. The test is described as follows: Body weight lowering in obese rat, MIC-1-HSA in combination with semaglutide (Example 2). The test is classed as in vivo. The text has this:
The purpose of the study in example 2 was to investigate effects of a MIC-1-HSA compound in combination with the GLP-1 compound semaglutide on body weight lowering in obese rat.
60 male obese Sprague Dawley rats from Taconic were used. Animals where housed 2 per cage and had ad libitum access to high-fat diet (45 kcal % fat, Research Diets Inc, diet 12451). Mean starting body weight was 736.0 g (634.7-982.4 g). Animals were randomised into 6 groups based on body weight (n=10). Animals were housed in reversed light cycle (dark 11:00-23:00). Vehicle and semaglutide were dosed subcutaneously (SC) once daily (QD) for the duration of the study (study day 0-26) at 10 am. Because of the immunogenic properties of MIC-1-HSA in rodents, the dosing period with MIC-1-HSA was limited to 12 days. MIC-1-HSA was dosed SC every other day, starting at study day 15 and ending at day 26. The two compounds were in all cases dosed individually and were not administrated in the same formulation using the same syringe.
Due to a long in vivo terminal half-life of MIC-1 HSA (˜50 hrs in lean rat) animals were dosed with a bolus dose at day 15 and subsequent doses of MIC-1-HSA were reduced to compensate for the protracted half-life to achieve a stable plasma exposure during the study. […] Dose volume was adjusted to daily body weight. Please see table 3.
The dose of Semaglutide was 2 nmol/kg and was selected in order to achieve a therapeutic relevant pharmaco-dynamic effect.
From day −1 and during the entire dosing period until day 26, body weight was monitored daily prior to dosing.
The dosing was performed using insulin syringe and a dosing volume of 1 ml/kg (2.3 ml/kg for bolus dose of MIC-1-HSA).
In table 4 are shown pharmacodynamic effects expressed as changes in body weights of obese rats in response to the 6 treatment arms. Data are expressed as the average values as grams (A) and as percentages (B). “Delta 0-26” is the change in body weight from day 0 to day 26. “vs vehicle” is the change in body weight at day 26 in comparison with the vehicle group at day 26. “Predicted” is the expected change in body weight based on body weight changes in the associated MIC-1-HSA and semaglutide mono-therapy arms. “Synergy” expresses the unexpected and additional effect beyond the predicted effect of the MIC-1-HSA and semaglutide combination. This value is calculated by subtracting the predicted value from the actual effect of the combination (vs vehicle). A negative synergy value reflects an additional unexpected synergistic body weight lowering effect.

The mark [1] stands for this setting: Sema 2 nmol/kg, change day 0 to day 26.
The mark [2] stands for this setting: Sema 2 nmol/kg, day 26 vs vehicle group.

Consider “N6.26-{18-[N-(17-carboxyheptadecanoyl)-L-γ-glutamyl]-10-oxo-3,6,12,15-tetraoxa-9,18-diazaoctadecanoyl}-[8-(2-amino-2-propanoic acid),34-L-arginine]human glucagon-like peptide 1(7-37) [Sema]”, for which, under “Sema 2 nmol/kg SC QD day 0-26”, the “Body weight [% of study start] Study end” value was 95 % of study start and the “Body weight [gram] Study end” value was found to be 746 gram. Besides, under setting [1], the “Body weight [% of study start] Delta 0-26” value is reported as −5.4 % of study start and the “Body weight [gram] Delta 0-26” value is given as −41.8 gram. Under setting [2], the “Body weight [% of study start] vs vehicle” value is on record as −8.0 % of study start and the “Body weight [gram] vs vehicle” value was −62.2 gram. Further, the “reduced body weight compared to vehicle” value (semaglutide monotherapy 2 nmol/kg, day 26) is on record as 8.0%.

These data come from patent publication US11260108B2, “MIC-1 and GLP-1 for use in the treatment of obesity” (Novo Nordisk A/S, priority 2017, dated 2022).
